#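 A five-concentration, 48-hour dose response in 96-well plates underlies each endpoint, interpolated linearly between surrounding concentrations. TGI: concentration producing complete growth inhibition.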
# Key:
# Assay in all cases: growth of human tumour cells (NCI), 48 h
# [1] = test system: OVCAR-5 ovarian
# [2] = test system: SNB-75 CNS
# [3] = test system: DU-145 prostate
# [4] = test system: NCI-H522 lung
# [5] = test system: SK-MEL-28 melanoma
# [6] = test system: UACC-62 melanoma
# [7] = test system: MDA-N
# [8] = test system: SN12C renal
# [9] = test system: UO-31 renal
# [10] = test system: RXF 393 renal
SMILES,TGI [1],TGI [2],TGI [3],TGI [4],TGI [5],TGI [6],TGI [7],TGI [8],TGI [9],TGI [10]
COC(=O)C(Cc1ccccc1)NP(=O)(O)OCC1OC(n2cc(F)c(=O)[nH]c2=O)CC1O (stereo not drawn),> 100 µM,> 100 µM,> 100 µM,> 100 µM,> 100 µM,> 100 µM,> 100 µM,> 100 µM,> 100 µM,> 100 µM
COc1c(O)cc(O)c2c(=O)cc(-c3ccccc3)oc12,> 100 µM,> 100 µM,79.5 µM,> 100 µM,> 100 µM,> 100 µM,> 100 µM,> 100 µM,6.04 µM,42.7 µM
C=C(C)C(O)C(O)c1c(OC)ccc2ccc(=O)oc12 (stereo not drawn),> 100 µM,> 100 µM,> 100 µM,> 100 µM,> 100 µM,> 100 µM,> 100 µM,> 100 µM,> 100 µM,> 100 µM
CC1(O)CC(=O)c2c(cc3ccc(-c4c5c(c(O)c6c(O)cccc46)C(=O)CC(C)(O)C5)c(O)c3c2O)C1 (stereo not drawn),8.66 µM,0.773 µM,3.43 µM,1.12 µM,7.01 µM,> 100 µM,14.2 µM,13.1 µM,0.726 µM,1.11 µM
O=C(O)c1ccn(-c2cccc(-n3ccc(C(=O)O)n3)n2)n1,> 100 µM,> 100 µM,> 100 µM,> 100 µM,> 100 µM,> 100 µM,> 100 µM,> 100 µM,> 100 µM,> 100 µM
S=C1SCN(Cc2ccco2)CN1c1ccc(Br)cc1,34.5 µM,> 100 µM,> 100 µM,23.7 µM,43.1 µM,15.2 µM,94.8 µM,66.4 µM,44.9 µM,> 100 µM
O=c1ccn(CC2(CO)CC(Cc3ccccc3)C2)c(=O)[nH]1 (stereo not drawn),> 100 µM,> 100 µM,> 100 µM,> 100 µM,> 100 µM,> 100 µM,> 100 µM,> 100 µM,> 100 µM,> 100 µM
CCOC(=O)c1c(N2CCCC2)ncn(Cc2ccccc2)c1=S,> 100 µM,> 100 µM,> 100 µM,> 100 µM,> 100 µM,> 100 µM,> 100 µM,> 100 µM,> 100 µM,> 100 µM
CCCC(=O)NC(Nc1ccc(S(=O)(=O)Nc2nc(C)cc(C)n2)cc1)(C(F)(F)F)C(F)(F)F,> 100 µM,> 100 µM,> 100 µM,> 100 µM,> 100 µM,> 100 µM,> 100 µM,> 100 µM,> 100 µM,> 100 µM
CC1(C)[C@H]2CC[C@]1(C)[C@H](OC(=O)NNC(=O)O[C@@H]1C[C@@H]3CC[C@@]1(C)C3(C)C)C2,34.1 µM,28.1 µM,32.7 µM,30.7 µM,> 100 µM,38.8 µM,24.8 µM,24.7 µM,29.2 µM,24.7 µM
CCOC(=O)c1cc2c3c(c(C(C)=O)c(O)c2[nH]1)N(CC(C)CC)CC3 (stereo not drawn),,> 100 µM,> 100 µM,> 100 µM,> 100 µM,> 100 µM,> 100 µM,> 100 µM,> 100 µM,> 100 µM
CCOP(=O)(OCC)C1CC(n2cc(C)c(=O)[nH]c2=O)OC1CO (stereo not drawn),> 100 µM,> 100 µM,> 100 µM,> 100 µM,> 100 µM,> 100 µM,> 100 µM,> 100 µM,> 100 µM,> 100 µM
CCCCCCCCCCCCCCCCCCNc1ccn(C2OC(COP(=O)(O)OCC3OC(n4cc(F)c(NCCCCCCCCCCCCCCCCCC)nc4=O)CC3O)C(O)C2O)c(=O)n1 (stereo not drawn),> 100 µM,> 100 µM,> 100 µM,> 100 µM,> 100 µM,> 100 µM,> 100 µM,> 100 µM,> 100 µM,> 100 µM
COc1cc(/C=C2/C[C@H]3[C@@H]4CC=C5C[C@@H](OC(C)=O)CC[C@]5(C)[C@H]4CC[C@]3(C)NC2=O)cc(OC)c1OC,92.2 µM,47.3 µM,55.3 µM,59.4 µM,70.9 µM,47 µM,> 100 µM,> 100 µM,50.2 µM,39.4 µM
C#CCSC(C=C=C)P(=O)(OC(C)C)OC(C)C (stereo not drawn),> 100 µM,> 100 µM,> 100 µM,83.6 µM,> 100 µM,> 100 µM,> 100 µM,88.3 µM,> 100 µM,> 100 µM
CC(=O)c1c(C(F)(F)F)n([O-])c2cc(Cl)c(Cl)cc2[n+]1=O,3.29 µM,2.25 µM,3.37 µM,0.368 µM,3.87 µM,2.58 µM,2.41 µM,2.69 µM,1.59 µM,2.51 µM

SMILES,TGI [1],TGI [2],TGI [3],TGI [4],TGI [5],TGI [6],TGI [7],TGI [8],TGI [9],TGI [10]
O=C(Nc1nc2ccccc2s1)c1cc([N+](=O)[O-])ccc1Cl,> 100 µM,> 100 µM,86.3 µM,11.6 µM,> 100 µM,> 100 µM,> 31.6 µM,> 100 µM,> 100 µM,15.9 µM
Cc1ccc2c(c1C)C(=O)/C(=C/c1ccccc1C(=O)O)C2,> 100 µM,> 100 µM,> 100 µM,> 100 µM,> 100 µM,> 100 µM,> 100 µM,> 100 µM,> 100 µM,> 100 µM
COc1ccccc1NC(=O)CC(=O)N1N=C(C)C(N=Nc2ccc(C(=O)O)cc2)C1=O (stereo not drawn),> 100 µM,6.06 µM,> 100 µM,> 100 µM,> 100 µM,> 100 µM,> 100 µM,> 100 µM,> 100 µM,> 100 µM
O=C(Nc1ccccc1)N(CCCCN(Cc1ccccc1)C(=O)Nc1ccccc1)Cc1ccccc1,> 100 µM,> 100 µM,> 100 µM,> 100 µM,> 100 µM,> 100 µM,> 100 µM,> 100 µM,> 100 µM,> 100 µM
COC(=O)c1c(OC(C)=O)ccc2c1c1c(n2C)C(=O)c2ccccc2C1=O,> 100 µM,41.3 µM,62.5 µM,67.6 µM,> 100 µM,> 100 µM,> 100 µM,> 100 µM,> 100 µM,> 100 µM
CSC1=N/C(=C\c2ccco2)C(=O)N1CN1CCOCC1,> 100 µM,> 100 µM,> 100 µM,> 100 µM,> 100 µM,> 100 µM,> 100 µM,> 88.7 µM,> 100 µM,44.6 µM
O=C1/C(=N\S(=O)(=O)c2ccccc2)C([n+]2ccc(Cc3ccccc3)cc2)=C([O-])c2ccccc21,3.49 µM,2.64 µM,2.89 µM,2.11 µM,2.14 µM,2.42 µM,0.346 µM,3.12 µM,4.62 µM,6.59 µM
COc1ccc(NC(C)=O)cc1N1C(=O)/C(=C\c2cc(OC)c(OC)c(OC)c2)SC1c1ccccc1 (stereo not drawn),> 100 µM,> 100 µM,> 100 µM,> 100 µM,> 100 µM,> 100 µM,72.3 µM,> 100 µM,> 100 µM,> 100 µM
COC1OC2COC1(OC)C1OC(C)(C)OC21 (stereo not drawn),> 100 µM,> 100 µM,> 100 µM,> 100 µM,> 100 µM,> 100 µM,> 100 µM,> 100 µM,> 100 µM,> 100 µM
Oc1c([Si](c2ccccc2)(c2ccccc2)c2ccccc2)cc2ccccc2c1-c1c(O)c([Si](c2ccccc2)(c2ccccc2)c2ccccc2)cc2ccccc12,> 100 µM,> 100 µM,> 100 µM,> 100 µM,> 100 µM,> 100 µM,> 100 µM,,> 100 µM,> 100 µM
O=c1cc(N2CCN(c3cc(=O)n4ccccc4n3)CC2)oc2ccccc12,> 100 µM,> 54.3 µM,> 100 µM,> 100 µM,> 100 µM,> 100 µM,> 100 µM,> 100 µM,> 70.9 µM,> 100 µM
CCN(CC)c1ccc2cc(C(=O)Nc3cccc4ccccc34)c(=N)oc2c1,> 100 µM,> 100 µM,> 100 µM,> 100 µM,> 100 µM,> 100 µM,> 100 µM,> 100 µM,> 100 µM,> 100 µM
CN1CCN(CCCBr)CC1,> 100 µM,> 100 µM,> 100 µM,> 100 µM,> 100 µM,> 100 µM,> 100 µM,> 100 µM,> 100 µM,> 100 µM
N#Cc1ccccc1-c1nc2c3c(c(N)ccc3n1)C(=O)c1ccccc1-2,> 100 µM,> 100 µM,> 100 µM,> 100 µM,> 100 µM,> 100 µM,> 100 µM,> 100 µM,> 100 µM,> 100 µM
CC1=NN(c2nc(N)nc(/C(C#N)=C/c3cccn3-c3cc(Cl)cc(Cl)c3)n2)C(C)(C)C1,> 100 µM,99.7 µM,> 100 µM,> 100 µM,> 100 µM,> 100 µM,> 100 µM,> 100 µM,> 100 µM,> 100 µM
COc1ccc(C)cc1Nc1nnc(-c2ccccc2N)s1,> 100 µM,> 100 µM,> 100 µM,58.7 µM,> 100 µM,> 100 µM,> 100 µM,> 100 µM,> 100 µM,> 100 µM

# Source: PubChem BioAssay (NCI)
